The nature of one data set: MT-4 cytotoxicity assay. It counts as cell-based. As to conditions: human, MT-4 cells; five days incubation, Cell Titer Glo. The procedure: The MT-4 cell line (HTLV-1 transformed, human T lymphoblastoid cells) was obtained from the NIH AIDS Reagent program (Bethesda, Md.). MT-4 cells were maintained in RPMI-1640 supplemented with 10% fetal bovine serum (FBS, Hyclone, Logan, Utah). All cell culture media were also supplemented with 100 Units/mL penicillin, 100 μg/mL streptomycin (Gibco). For the MT-4 cytotoxicity assay, 0.4 μL of serially diluted solutions of certain compounds disclosed herein were added to 40 μL of cell maintenance media in 384-well black, solid bottom plate using a Biomek FX workstation (Beckman Coulter). Two thousand cells in 35 μL were added to each well using a Biotek uFlow Workstation (Biotek). Each assay plate contained 10 μM puromycin (final concentration) and 0.5% DMSO in RPMI-1640 as positive and negative controls, respectively. Assay plates were incubated for five days at 37° C. in an incubator set at 5% CO2 and 90% humidity. After five days, 22 μL of Cell Titer Glo reagent (Promega) was added to the assay plates with a Biotek uFlow Workstation. Plates were subsequently placed on a Perkin Elmer Envision Plate Reader for five minutes before the luminescence signal was read. CC50 values were calculated by non-linear regression using Pipeline Pilot software by applying a four parameter fit equation (Accelrys, San Diego, Calif.) and are reported in the following Table 2.
A general note: In ATP-based viability assays light output follows the ATP content of the culture.

Data set [1] is described as follows: In vitro metabolic stability, hepatic microsomes (rat). Particulars: pooled hepatic microsomes, pH 7.4; rat hepatic microsomes 1.0 mg/mL, 1 μM compound, NADPH and UDPGA cofactors; read-out: Microsome Stability T1/2 Rat. It counts as in vitro ADME. The procedure: (§1) Pooled hepatic microsomes were diluted in […] potassium phosphate buffer to 1.0 mg/mL final protein concentration. Alamethicin was added to the microsomal fraction to permeabilize the membrane to allow access of the UDP-glucronic acid (UDPGA) co-substrate to the active site of the UDP glucuronosyl transferase (UGT) enzymes. The final concentration was 25 μg/mL (ratio 25 μg alamethicin/mg microsomal protein) and the microsomes were then placed on ice for 15 min prior to the start of the reaction. Test compound was added to a final concentration of 1 μM. Positive control compounds known to be metabolized by oxidative and UGT enzymes were used. The metabolic reaction was warmed to 37° C. and initiated by the addition of a cofactor mix that consisted of 1.55 mM NADP, 3.3 mM glucose-6-phosphate, 0.4 U/mL glucose-6-phosphate dehydrogenase, 5 mM UDP-glucuronic acid and 3.3 mM MgCl2 all dissolved in 0.1 M potassium phosphate buffer, pH 7.4. At 2, 12, 25, 45, and 65 min, 25 μL aliquots of the reaction mixture were transferred to plates containing 225 μl of quenching solution (acetonitrile containing 300 nM labetalol IS and 0.1% formic acid). After quenching, the plates are centrifuged at 3000×g for 30 minutes to precipitate proteins, and 10 μL aliquots of the supernatant are analyzed by HPLC coupled to a high-resolution mass spectrometer.
(§2) Quantification of test compounds and positive controls were performed using analyte/internal standard peak area ratios (PAR) measured on a Q-Exactive mass spectrometer (Thermo Scientific, San Jose, Calif.) coupled to an Aria Transcend LX-4 multiplex UHPLC system (Thermo Scientific, San Jose, Calif.). A Hypersil Gold C18 UHPLC column (1.9 […], 50×2.1 mm) was used with mobile phases A and B consisting of 0.1% formic acid in water and 0.1% formic acid in acetonitrile, respectively. […] Half-lives of compounds in the incubations were calculated from extracted data using GMSU/QuickCalc (Gubbs, Inc.) and data are summarized in the following Table 3.

Data set [2] in a line: Pharmacokinetic analysis following oral administration to rats. It counts as in vivo, male Sprague-Dawley rats. Particulars: rat, 5 mg/kg; for Cmax / AUC(0-t): male, Sprague-Dawley, plasma; for AUC(0-t): 0 to 24 hr, read-out: AUC0-24; for F: oral bioavailability. The procedure:
Pharmacokinetic analysis was performed on various test compounds following intravenous or oral administration to male Sprague-Dawley rats.
For pharmacokinetic analysis of intravenously administered compounds, the test compounds were formulated in 5% NMP, 30% PG, 45% PEG 300 and 20% water at 0.5 mg/mL for IV infusion. For pharmacokinetic analysis following oral administration, compounds were formulated in the same vehicle and concentration.
Each dosing group consisted of 3 male, naïve Sprague-Dawley rats. At dosing, animals weighed approximately 0.28 kg. The animals were fasted overnight prior to dose administration and up to 4 hr after dosing. For studies of intravenous administration, the test article was administered to the animals by intravenous infusion over 30 min. The rate of infusion was adjusted according to the body weight of each animal to deliver a dose of 1 mg/kg. For studies of oral administration, the test article was administered according to the body weight of each animal to deliver a dose of 5 mg/kg.
For pharmacokinetic analysis of orally administered compounds, serial venous blood samples (approximately 0.3 mL each) were taken from each animal at time points of 0, 0.25, 0.50, 1.0, 2.0, 4.0, 6.0, 8.0, 12.0 and 24.0 hours after dosing. Blood samples were collected, prepared and analyzed in a similar way to the intravenous studies described above. Non-compartmental pharmacokinetic analysis was performed on the plasma concentration-time data. The resulting data are shown in the last three columns of Table 4. In Table 4, F (%) refers to oral bioavailability. Cmax refers to the peak plasma concentration of the compound after administration. AUC0-24 refers to area under the curve for the 0 to 24 hr plasma collection interval and is a measure of total plasma exposure of the indicated compound.

Data set [3] is described as follows: In vitro metabolic stability, hepatic microsomes (human). As to conditions: pooled hepatic microsomes, pH 7.4; human hepatic microsomes 1.0 mg/mL, 1 μM compound, NADPH and UDPGA cofactors; read-out: Microsome Stability T1/2 Human. It counts as in vitro ADME. On the procedure: as §1, §2

Experimental findings from US10100052B2, “Compounds for the treatment of hepatitis B virus infection” (Gilead Sciences, Inc., priority 2016, dated 2018) are described below.

Molecules are shown by their SMILES.

The CC50 is the concentration at which the toxic effect on the cells reaches its halfway point. What is called Cmax is the highest concentration seen after dosing.

`COCCCOc1cc2c(cc1Cl)-c1cc(=O)c(C(=O)O)cn1[C@H](C1(C)CC1)C2` [Comparative Example 1] yielded a CC50 at 5 days in the data set “MT-4 cytotoxicity assay” of 4.2 µM. For the same compound, in data set [1], the half-life at 1 μM turned out to be 3.82 h. Also, in data set [2], the peak level (Cmax) was 4.03 µM, the AUC(0-t) was found to be 22.1 µM·h and the F is reported as 53.8%. The half-life at 1 μM in data set [3] is 3.9 h.
For the compound `COCCCOc1cc2c(cc1Cl)-c1cc(=O)c(C(=O)O)cn1N(C(C)(C)C)C2` [Example 2, 6-(tert-Butyl)-10-chloro-9-(3-methoxypropoxy)-2-oxo-6,7-dihydro-2H-pyrido[2,1-a]-phthalazine-3-carboxylic acid], in “MT-4 cytotoxicity assay”, the CC50 at 5 days was above 10 µM. Besides, the half-life at 1 μM in data set [1] was above 5.83 h. In addition, in data set [2], the concentration peaked (Cmax) at 6.76 µM, the AUC(0-t) stood at 68.6 µM·h and the F is 109%. Further, the half-life at 1 μM in data set [3] is above 5.83 h.
The compound `COCCCOc1cc2c(cc1Cl)-c1cc(=O)c(C(=O)O)cn1[C@H](C(C)(C)C)C2` [Comparative Example 2] came in with a CC50 at 5 days in the data set “MT-4 cytotoxicity assay” of 5.7 µM. Besides, the half-life at 1 μM in data set [1] worked out at 3.83 h. In data set [2], the Cmax was found to be 2.43 µM, the AUC(0-t) was found to be 15.2 µM·h and the F worked out at 40.5%. In addition, the half-life at 1 μM in data set [3] is 4.9 h.
